Eleven molecules from patent US12258328B2, “6-membered heteroaryl-containing aminopyridine compounds as EGFR inhibitors” (YUHAN CORPORATION, priority 2021, dated 2025) can be followed below.

In one assay the target is EGFR wildtype (Homo sapiens, UniProt P00533). Put plainly: Biochemical EGFR kinase assay (Lance Ultra TR-FRET), wildtype. On the procedure:
(§1) Biochemical EGFR kinase assays were conducted using Lance Ultra time-resolved fluorescence resonance energy transfer (TR-FRET) technology from Perkin-Elmer. Compounds of the invention were initially diluted to 20 mM in 100% DMSO for storage and made into kinase buffer solution to create a compound concentration ranging from 0.003 μM and 10 μM.
(§2) Each kinase reactions were incubated at room temperature for 1 hour and then stopped by the addition of 4 μL of stop solution (10 mM EDTA). The specific Europium-labeled-anti-phosphopeptide antibody (PerkinElmer, AD0069) diluted in LANCE detection buffer was then added to a final concentration of 2 nM. After 60 minutes incubation at room temperature the LANCE signal was measured on an EnVision Multilabel Reader (Perkin-Elmer). Excitation wavelength was set at 320 nm and emission monitored at 615 nm (donor) and 665 nm (acceptor). The IC50 values were determined using GraphPad prism software (GraphPad Software, Inc., San Diego, CA, USA).

Another assay has as its target EGFR del19/C797S (Homo sapiens, UniProt P00533, C797S/DEL746-750). Kind of assay: Biochemical EGFR kinase assay (Lance Ultra TR-FRET), double mutant del19/C797S. As to the method: as §1, §2
A further assay deals with EGFR L858R/C797S (Homo sapiens, UniProt P00533, C797S/L858R). Kind of assay: Biochemical EGFR kinase assay (Lance Ultra TR-FRET), double mutant L858R/C797S. As to the method: as §1, §2
The target of another assay is EGFR del19/T790M/C797S (Homo sapiens, UniProt P00533, C797S/DEL746-750/T790M). Put plainly: Biochemical EGFR kinase assay (Lance Ultra TR-FRET), triple mutant del19/T790M/C797S. On the procedure:
as §1, §2

For a further assay, the target named is EGFR L858R/T790M/C797S (Homo sapiens, UniProt P00533, C797S/L858R/T790M). Put plainly: Biochemical EGFR kinase assay (Lance Ultra TR-FRET), triple mutant L858R/T790M/C797S. As to the method:
as §1, §2

The mark [1] stands for this setting: IC50 WT (nM) 100 μM ATP, 100 μM ATP.
[2] abbreviates: Km ATP, read-out: IC50 WT (nM) Km ATP.
Where [3] appears, read: IC50 del19/C797S (nM) 100 μM ATP, 100 μM ATP.
The mark [4] stands for this setting: Km ATP, read-out: IC50 del19/C797S (nM) Km ATP.
Where [5] appears, read: IC50 L858R/C797S (nM) 100 μM ATP, 100 μM ATP.
The mark [6] stands for this setting: Km ATP, read-out: IC50 L858R/C797S (nM) Km ATP.
Where [7] appears, read: IC50 del19/T790M/C797S (nM) 100 μM ATP, 100 μM ATP.
[8] abbreviates: Km ATP, read-out: IC50 del19/T790M/C797S (nM) Km ATP.
Where [9] appears, read: IC50 L858R/T790M/C797S (nM) 100 μM ATP, 100 μM ATP.
The mark [10] stands for this setting: Km ATP, read-out: IC50 L858R/T790M/C797S (nM) Km ATP.
Setting [11] is: ATP at Km, read-out: IC50 L858R/C797S, Km ATP.
Setting [12] is: ATP at Km, read-out: IC50 del19/T790M/C797S, Km ATP.
The mark [13] stands for this setting: IC50 del19/T790M/C797S, 100 μM ATP.
The mark [14] stands for this setting: ATP at Km, read-out: IC50 del19/C797S, Km ATP.
[15] abbreviates: ATP at Km, read-out: IC50 L858R/T790M/C797S, Km ATP.
Setting [16] is: ATP at Km, read-out: IC50 WT, Km ATP.

Structures are written as SMILES. Read-outs that look alike come from different tables or passages of the source. Bounds are passed on as bounds.

EGFR del19/C797S, sequence (P00533 with tags, fused parts or gaps DEL746-750/C797S): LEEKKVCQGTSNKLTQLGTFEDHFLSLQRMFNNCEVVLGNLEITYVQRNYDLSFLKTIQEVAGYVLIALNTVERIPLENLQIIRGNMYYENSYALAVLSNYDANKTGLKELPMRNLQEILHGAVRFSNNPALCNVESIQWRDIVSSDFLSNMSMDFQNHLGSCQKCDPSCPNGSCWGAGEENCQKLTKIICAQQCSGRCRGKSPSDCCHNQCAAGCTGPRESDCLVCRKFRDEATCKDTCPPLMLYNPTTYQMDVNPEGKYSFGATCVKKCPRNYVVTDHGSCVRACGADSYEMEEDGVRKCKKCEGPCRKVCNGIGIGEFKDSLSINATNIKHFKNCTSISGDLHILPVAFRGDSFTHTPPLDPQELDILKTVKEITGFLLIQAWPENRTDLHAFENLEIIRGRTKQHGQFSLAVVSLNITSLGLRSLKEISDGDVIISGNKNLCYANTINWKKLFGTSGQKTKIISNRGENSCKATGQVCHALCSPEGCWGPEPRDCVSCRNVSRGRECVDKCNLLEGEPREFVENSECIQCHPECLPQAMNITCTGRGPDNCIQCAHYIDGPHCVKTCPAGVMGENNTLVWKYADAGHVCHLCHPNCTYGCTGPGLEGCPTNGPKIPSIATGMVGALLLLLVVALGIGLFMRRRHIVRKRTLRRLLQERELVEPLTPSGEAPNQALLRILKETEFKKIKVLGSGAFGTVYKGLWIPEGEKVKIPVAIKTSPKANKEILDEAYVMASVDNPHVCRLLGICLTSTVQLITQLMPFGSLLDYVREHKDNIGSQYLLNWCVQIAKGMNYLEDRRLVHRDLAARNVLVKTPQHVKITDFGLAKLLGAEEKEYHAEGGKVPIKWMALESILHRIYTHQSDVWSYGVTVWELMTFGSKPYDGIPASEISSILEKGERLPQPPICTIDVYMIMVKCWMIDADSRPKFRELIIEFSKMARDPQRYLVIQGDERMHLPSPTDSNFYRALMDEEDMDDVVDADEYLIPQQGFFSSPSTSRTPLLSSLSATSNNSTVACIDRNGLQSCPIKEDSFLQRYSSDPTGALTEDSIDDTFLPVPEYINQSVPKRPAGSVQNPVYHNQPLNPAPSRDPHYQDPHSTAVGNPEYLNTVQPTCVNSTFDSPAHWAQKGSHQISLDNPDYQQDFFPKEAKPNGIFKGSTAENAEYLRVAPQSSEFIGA
EGFR L858R/C797S, sequence (P00533 25-1210 C797S/L858R): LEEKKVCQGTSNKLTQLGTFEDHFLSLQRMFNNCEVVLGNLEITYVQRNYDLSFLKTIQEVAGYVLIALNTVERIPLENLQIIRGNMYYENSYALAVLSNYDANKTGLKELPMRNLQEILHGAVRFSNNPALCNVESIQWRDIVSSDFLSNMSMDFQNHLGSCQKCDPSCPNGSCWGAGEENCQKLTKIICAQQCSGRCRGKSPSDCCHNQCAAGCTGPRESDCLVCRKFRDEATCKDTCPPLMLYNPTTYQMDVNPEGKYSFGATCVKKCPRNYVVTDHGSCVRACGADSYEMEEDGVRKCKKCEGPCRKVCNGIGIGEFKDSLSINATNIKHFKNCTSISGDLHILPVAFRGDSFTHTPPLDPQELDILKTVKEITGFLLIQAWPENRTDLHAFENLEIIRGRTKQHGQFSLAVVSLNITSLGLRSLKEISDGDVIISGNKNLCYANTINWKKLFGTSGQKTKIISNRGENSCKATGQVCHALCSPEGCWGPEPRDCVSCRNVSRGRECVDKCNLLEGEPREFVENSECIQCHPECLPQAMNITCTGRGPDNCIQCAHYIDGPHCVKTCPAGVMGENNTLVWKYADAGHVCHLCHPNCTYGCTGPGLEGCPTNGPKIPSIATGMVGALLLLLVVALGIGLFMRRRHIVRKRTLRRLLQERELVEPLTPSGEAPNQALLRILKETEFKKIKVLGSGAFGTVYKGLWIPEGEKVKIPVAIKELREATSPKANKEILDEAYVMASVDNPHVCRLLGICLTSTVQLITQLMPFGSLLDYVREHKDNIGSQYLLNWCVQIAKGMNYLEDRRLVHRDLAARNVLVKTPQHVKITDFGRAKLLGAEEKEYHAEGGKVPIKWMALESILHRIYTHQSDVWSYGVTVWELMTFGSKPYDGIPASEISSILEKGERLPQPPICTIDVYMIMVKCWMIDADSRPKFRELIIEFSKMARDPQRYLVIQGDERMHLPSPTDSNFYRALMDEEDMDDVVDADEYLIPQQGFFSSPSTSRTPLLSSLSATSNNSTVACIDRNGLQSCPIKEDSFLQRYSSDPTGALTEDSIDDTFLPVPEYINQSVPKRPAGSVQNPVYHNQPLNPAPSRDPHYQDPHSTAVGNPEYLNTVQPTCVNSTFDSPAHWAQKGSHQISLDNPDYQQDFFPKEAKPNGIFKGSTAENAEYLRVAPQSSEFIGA
EGFR L858R/T790M/C797S, sequence (P00533 25-1210 T790M/C797S/L858R): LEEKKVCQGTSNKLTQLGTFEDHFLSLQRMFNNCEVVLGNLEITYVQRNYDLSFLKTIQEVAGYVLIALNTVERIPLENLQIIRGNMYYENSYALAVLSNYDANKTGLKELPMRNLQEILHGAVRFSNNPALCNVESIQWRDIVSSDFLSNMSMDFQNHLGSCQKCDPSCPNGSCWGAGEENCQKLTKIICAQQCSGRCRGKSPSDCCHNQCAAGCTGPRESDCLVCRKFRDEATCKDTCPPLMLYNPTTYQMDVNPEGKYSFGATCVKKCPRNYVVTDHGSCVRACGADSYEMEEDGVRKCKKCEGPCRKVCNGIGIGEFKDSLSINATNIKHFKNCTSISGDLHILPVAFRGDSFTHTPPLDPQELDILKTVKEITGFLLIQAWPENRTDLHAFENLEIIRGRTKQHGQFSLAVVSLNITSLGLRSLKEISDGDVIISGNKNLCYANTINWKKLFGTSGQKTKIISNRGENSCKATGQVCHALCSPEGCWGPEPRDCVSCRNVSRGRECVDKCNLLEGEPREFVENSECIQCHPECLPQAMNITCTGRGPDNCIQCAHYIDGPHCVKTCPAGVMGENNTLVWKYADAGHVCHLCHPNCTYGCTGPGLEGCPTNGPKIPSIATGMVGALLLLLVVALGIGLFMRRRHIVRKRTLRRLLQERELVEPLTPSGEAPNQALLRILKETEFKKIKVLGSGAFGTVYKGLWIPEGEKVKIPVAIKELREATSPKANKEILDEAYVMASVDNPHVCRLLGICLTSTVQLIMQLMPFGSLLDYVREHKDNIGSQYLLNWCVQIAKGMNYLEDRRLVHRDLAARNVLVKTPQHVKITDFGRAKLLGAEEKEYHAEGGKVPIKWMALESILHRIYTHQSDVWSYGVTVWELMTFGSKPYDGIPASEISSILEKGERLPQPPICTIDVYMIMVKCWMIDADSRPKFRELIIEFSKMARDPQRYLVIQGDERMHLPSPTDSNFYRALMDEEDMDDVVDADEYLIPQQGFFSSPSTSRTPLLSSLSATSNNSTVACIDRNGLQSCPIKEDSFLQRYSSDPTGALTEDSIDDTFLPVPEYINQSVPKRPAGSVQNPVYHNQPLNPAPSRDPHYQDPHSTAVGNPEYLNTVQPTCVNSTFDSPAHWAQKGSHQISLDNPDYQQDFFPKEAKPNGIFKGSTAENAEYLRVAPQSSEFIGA
EGFR wildtype, sequence (P00533 25-1210): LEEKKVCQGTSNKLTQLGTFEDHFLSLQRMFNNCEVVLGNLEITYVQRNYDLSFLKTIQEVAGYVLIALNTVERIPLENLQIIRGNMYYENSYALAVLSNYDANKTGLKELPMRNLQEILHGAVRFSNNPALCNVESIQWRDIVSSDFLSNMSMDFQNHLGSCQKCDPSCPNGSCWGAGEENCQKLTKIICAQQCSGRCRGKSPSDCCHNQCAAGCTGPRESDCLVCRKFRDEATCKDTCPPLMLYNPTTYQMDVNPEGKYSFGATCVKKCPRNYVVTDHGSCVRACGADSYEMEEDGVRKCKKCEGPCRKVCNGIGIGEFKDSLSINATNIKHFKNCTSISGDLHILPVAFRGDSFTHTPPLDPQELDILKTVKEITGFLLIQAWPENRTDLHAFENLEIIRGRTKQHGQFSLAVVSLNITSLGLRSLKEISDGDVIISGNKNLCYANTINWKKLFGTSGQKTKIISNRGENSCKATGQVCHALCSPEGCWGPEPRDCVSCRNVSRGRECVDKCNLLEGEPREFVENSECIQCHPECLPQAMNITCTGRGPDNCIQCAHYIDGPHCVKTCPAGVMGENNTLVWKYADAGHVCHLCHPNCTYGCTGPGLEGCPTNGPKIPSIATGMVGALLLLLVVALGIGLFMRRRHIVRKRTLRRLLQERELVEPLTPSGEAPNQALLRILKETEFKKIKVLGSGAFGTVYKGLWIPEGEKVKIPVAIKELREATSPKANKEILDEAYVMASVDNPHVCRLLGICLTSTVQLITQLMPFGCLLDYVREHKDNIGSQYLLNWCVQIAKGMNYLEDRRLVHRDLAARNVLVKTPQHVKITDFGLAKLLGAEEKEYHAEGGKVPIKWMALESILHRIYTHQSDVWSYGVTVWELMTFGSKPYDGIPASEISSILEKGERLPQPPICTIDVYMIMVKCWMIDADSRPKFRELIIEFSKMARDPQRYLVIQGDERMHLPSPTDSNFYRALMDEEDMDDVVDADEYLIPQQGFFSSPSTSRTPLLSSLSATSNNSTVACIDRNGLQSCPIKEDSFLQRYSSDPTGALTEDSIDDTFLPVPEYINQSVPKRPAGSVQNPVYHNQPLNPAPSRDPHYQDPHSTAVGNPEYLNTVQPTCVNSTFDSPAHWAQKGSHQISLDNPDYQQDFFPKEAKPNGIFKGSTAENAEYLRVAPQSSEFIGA

As to `C[C@]1(O)CC[C@@H](Nc2cc(Nc3ccnc(-c4cnn(S(=O)(=O)C5CC5)c4)n3)ncc2-c2ccc(CN3CCOCC3)cn2)CC1` [Example 32, (1s,4s)-4-((6′-((2-(1-(Cyclopropylsulfonyl)-1H-pyrazol-4-yl)pyrimidin-4-yl)amino)-5-(morpholinomethyl)-[2,3′-bipyridin]-4′-yl)amino)-1-methylcyclohexan-1-ol], the IC50 against EGFR wildtype (setting [1]) worked out at 120 nM; on EGFR wildtype (setting [2]), 0.3 nM; on EGFR del19/C797S (setting [3]), 0.1 nM; on EGFR del19/C797S (setting [4]), 0.2 nM; at EGFR L858R/C797S (setting [5]), 1.9 nM; at EGFR L858R/C797S (setting [6]) it was 0.1 nM. Further, the IC50 against EGFR del19/T790M/C797S (setting [7]) worked out at 0.4 nM; at EGFR del19/T790M/C797S (setting [8]), 0.2 nM; against EGFR L858R/T790M/C797S (setting [9]) it was 0.3 nM; on EGFR L858R/T790M/C797S (setting [10]) it was 0.2 nM.
Turning to `C[C@]1(O)CC[C@@H](Nc2cc(Nc3ccnc(-c4cnn(S(=O)(=O)C5CC5)c4)n3)ncc2-c2cc(OC(F)F)ccn2)CC1` [Example 331, (1s,4s)-4-((6′-((2-(1-(Cyclopropylsulfonyl)-1H-pyrazol-4-yl)pyrimidin-4-yl)amino)-4-(difluoromethoxy)-[2,3′-bipyridin]-4′-yl)amino)-1-methylcyclohexan-1-ol], the IC50 worked out at 17.4 nM at EGFR wildtype (setting [2]); 3.5 nM at EGFR del19/C797S (setting [4]); 2.4 nM on EGFR L858R/C797S (setting [6]); 1.9 nM at EGFR del19/T790M/C797S (setting [8]); 0.7 nM on EGFR L858R/T790M/C797S (setting [10]).
Turning to `O=S(=O)(C1CC1)n1cc(-c2nccc(Nc3cc(N[C@H]4CC[C@@H](CCO)CC4)c(-c4ccc(C(F)F)cn4)cn3)n2)cn1` [Example 94, 2-((1s,4s)-4-((6′-((2-(1-(Cyclopropylsulfonyl)-1H-pyrazol-4-yl)pyrimidin-4-yl)amino)-5-(difluoromethyl)-[2,3′-bipyridin]-4′-yl)amino)cyclohexyl)ethan-1-ol], the IC50 is > 10000 nM against EGFR wildtype (setting [1]); 7.2 nM at EGFR wildtype (setting [2]); 13.3 nM against EGFR del19/C797S (setting [3]); 3.9 nM on EGFR del19/C797S (setting [4]); 170 nM on EGFR L858R/C797S (setting [5]); 6 nM at EGFR L858R/C797S (setting [6]). The IC50 against EGFR del19/T790M/C797S (setting [7]) is 4.4 nM; at EGFR del19/T790M/C797S (setting [8]), 2.7 nM; at EGFR L858R/T790M/C797S (setting [10]), 0.9 nM.
In the case of `C[C@]1(O)CC[C@@H](Nc2cc(Nc3ccnc(-c4cnn(S(=O)(=O)C5CC5)c4)n3)ncc2-c2ccc(S(=O)(=O)N3CCOCC3)cn2)CC1` [Example 182, (1s,4s)-4-((6′-((2-(1-(Cyclopropylsulfonyl)-1H-pyrazol-4-yl)pyrimidin-4-yl)amino)-5-(morpholinosulfonyl)-[2,3′-bipyridin]-4′-yl)amino)-1-methylcyclohexan-1-ol], the IC50 against EGFR wildtype (IC50 WT, 100 μM ATP) was > 10000 nM; on EGFR del19/C797S (IC50 del19/C797S, 100 μM ATP), 3.7 nM; at EGFR L858R/C797S (setting [11]), 0.9 nM; against EGFR L858R/C797S (IC50 L858R/C797S, 100 μM ATP), 3.5 nM; at EGFR del19/T790M/C797S (setting [12]), 2.9 nM; against EGFR del19/T790M/C797S (setting [13]) it was 6.4 nM.
`CN1CCC(Oc2ccc(-c3cnc(Nc4nc(-c5cnn(S(=O)(=O)C6CC6)c5)ncc4F)cc3N[C@H]3CC[C@@](C)(O)CC3)nc2)CC1` [Example 300, (1s,4s)-4-((6′-((2-(1-(Cyclopropylsulfonyl)-1H-pyrazol-4-yl)-5-fluoropyrimidin-4-yl)amino)-5-((1-methylpiperidin-4-yl)oxy)-[2,3′-bipyridin]-4′-yl)amino)-1-methylcyclohexan-1-ol]: the IC50 on EGFR del19/C797S (setting [14]) turned out to be 0.4 nM; on EGFR L858R/C797S (setting [11]), 0.2 nM; at EGFR del19/T790M/C797S (setting [12]), 0.3 nM; at EGFR L858R/T790M/C797S (setting [15]) it was 0.1 nM.
On to `CC(C)Nc1cc(Nc2ccnc(-c3cnn(S(=O)(=O)C4CC4)c3)n2)ncc1-c1ccc(C(C)(O)C(F)(F)F)cn1` (stereo not drawn) [Example 295, 2-(6′-((2-(1-(Cyclopropylsulfonyl)-1H-pyrazol-4-yl)pyrimidin-4-yl)amino)-4′-(isopropylamino)-[2,3′-bipyridin]-5-yl)-1,1,1-trifluoropropan-2-ol], for which the IC50 at EGFR wildtype (setting [16]) was 44.7 nM; at EGFR del19/C797S (setting [14]), 49.2 nM; on EGFR L858R/C797S (setting [11]), 26.5 nM; at EGFR del19/T790M/C797S (setting [12]), 10.4 nM.
Regarding `CC(C)(O)[C@H]1CC[C@@H](Nc2cc(Nc3ccnc(-c4cnn(S(=O)(=O)C5CC5)c4)n3)ncc2-c2ccc(OCCO)cn2)CC1` [Example 207, 2-((1s,4s)-4-((6′-((2-(1-(Cyclopropylsulfonyl)-1H-pyrazol-4-yl)pyrimidin-4-yl)amino)-5-(2-hydroxyethoxy)-[2,3′-bipyridin]-4′-yl)amino)cyclohexyl)propan-2-ol], the IC50 on EGFR wildtype (setting [16]) worked out at 3.8 nM; against EGFR wildtype (IC50 WT, 100 μM ATP), 1790 nM; on EGFR L858R/C797S (setting [11]) it was 1 nM; on EGFR L858R/C797S (IC50 L858R/C797S, 100 μM ATP), 14 nM; at EGFR del19/T790M/C797S (setting [12]), 1.3 nM; against EGFR del19/T790M/C797S (setting [13]), 1.6 nM. Also, the IC50 turned out to be 0.3 nM on EGFR L858R/T790M/C797S (setting [15]) and 0.8 nM against EGFR L858R/T790M/C797S (IC50 L858R/T790M/C797S, 100 μM ATP).
`CN1CCC(Oc2cnc(-c3cnc(Nc4ccnc(-c5cnn(S(=O)(=O)C6CC6)c5)n4)cc3N[C@H]3CC[C@@](C)(O)CC3)cn2)CC1` [Example 145, (1s,4s)-4-((2-((2-(1-(Cyclopropylsulfonyl)-1H-pyrazol-4-yl)pyrimidin-4-yl)amino)-5-(5-((1-methylpiperidin-4-yl)oxy)pyrazin-2-yl)pyridin-4-yl)amino)-1-methylcyclohexan-1-ol]: the IC50 was determined as 0.3 nM at EGFR del19/C797S (setting [4]), 0.1 nM at EGFR L858R/C797S (setting [6]), 0.1 nM at EGFR del19/T790M/C797S (setting [8]) and 0.03 nM at EGFR L858R/T790M/C797S (setting [10]).
As for `C[C@]1(O)CC[C@@H](Nc2cc(Nc3ccnc(-c4cnn(S(=O)(=O)C5CC5)c4)n3)ncc2-c2cnc(OC(F)F)cn2)CC1` [Example 128, (1s,4s)-4-((2-((2-(1-(Cyclopropylsulfonyl)-1H-pyrazol-4-yl)pyrimidin-4-yl)amino)-5-(5-(difluoromethoxy)pyrazin-2-yl)pyridin-4-yl)amino)-1-methylcyclohexan-1-ol], the IC50 on EGFR wildtype (setting [2]) was > 10000 nM; at EGFR del19/C797S (setting [4]), 41.2 nM; at EGFR L858R/C797S (setting [6]) it was 95.8 nM; on EGFR L858R/T790M/C797S (setting [10]), 0.5 nM.
Consider `CC(C)(O)c1ccc(-c2cnc(Nc3ccnc(-c4cnn(S(=O)(=O)C5CC5)c4)n3)cc2NC2CCN(CCF)CC2)nc1` [Example 176, 2-(6′-((2-(1-(Cyclopropylsulfonyl)-1H-pyrazol-4-yl)pyrimidin-4-yl)amino)-4′-((1-(2-fluoroethyl)piperidin-4-yl)amino)-[2,3′-bipyridin]-5-yl)propan-2-ol], for which the IC50 worked out at 43.4 nM on EGFR wildtype (setting [16]), 5.5 nM at EGFR del19/C797S (setting [14]), 0.2 nM at EGFR del19/T790M/C797S (setting [12]) and 0.4 nM on EGFR L858R/T790M/C797S (setting [15]).
Turning to `COc1ccc(-c2cnc(Nc3ccnc(-c4cnn(S(=O)(=O)C5CC5)c4)n3)cc2N[C@H]2CC[C@@](C)(O)CC2)nn1` [Example 53, (1s,4s)-4-((2-((2-(1-(Cyclopropylsulfonyl)-1H-pyrazol-4-yl)pyrimidin-4-yl)amino)-5-(6-methoxypyridazin-3-yl)pyridin-4-yl)amino)-1-methylcyclohexan-1-ol], the IC50 against EGFR wildtype (setting [1]) is > 10000 nM; on EGFR wildtype (setting [2]) it was 6.9 nM; at EGFR L858R/C797S (setting [5]) it was 1 nM; at EGFR L858R/C797S (setting [6]), 1 nM; on EGFR del19/T790M/C797S (setting [7]) it was 0.4 nM; at EGFR del19/T790M/C797S (setting [8]) it was 0.4 nM. Moreover, the IC50 on EGFR L858R/T790M/C797S (setting [9]) came out at 0.5 nM; at EGFR L858R/T790M/C797S (setting [10]) it was 0.1 nM.
